Test results: a melting point compilation (Tetko et al.; mined from patent text by program, amines drawn as free bases though some values may be those of a salt)

| Structure (SMILES) | melting point |
| --- | --- |
| O=c1c(CO)cc(-c2ccc3occc3c2)nn1Cc1ccc(F)cc1 | 158 to 160 °C |
| Fc1ccc(NC(=S)NN(c2ccccc2)c2ccccc2)cc1 | 200 °C |
| CC(=O)O[C@H]1CS[C@H](C(=O)O)O1 (relative stereo) | 111 °C |
| Cn1nccc1C(=O)c1cc(O)c(O)c(Cl)c1Cl | 202 to 204 °C |
| CC1(C)NC(C)(C)c2ccccc21 | 36 to 38 °C |
| O=C(Nc1nccs1)c1c(C(F)F)nc2c(C(F)(F)F)cccc2c1O | 226 °C |
| CCN(CC)C(=O)Nc1ccc(S(=O)(=O)N2C(=O)C(NCCN3CCNCC3)(c3ccccc3Cl)c3cc(Cl)ccc32)cc1 (centres undefined) | 260 °C |
| CC(=O)N[C@@H](C)COC1CCN(c2nc3ccc(OCC(F)(F)F)cc3s2)CC1 | 129 to 131 °C |
| COC(=O)COc1ccc2cc(-c3csc(-c4ccccc4)n3)ccc2c1Br | 156 to 159 °C |
| COc1cc(C)c(C=O)c(OC)c1OC | 55 to 57 °C |
| Cc1c(OCc2ccccc2)ccc2cncn12 | 52 to 54 °C |
| CCCNCc1ccc(S(=O)(=O)c2ccc(S(N)(=O)=O)s2)cc1 | 151 to 153 °C |
| CN1Cc2c(C(=O)OCCO)ncn2-c2ccc(F)cc2C1=O | 202 to 204 °C |
| CC1CCc2ncc(C#N)c(=O)n21 (centres undefined) | 148 °C |
| OC(CSc1ccc(Cl)cc1)Cn1ccnc1 (centres undefined) | 108 to 109 °C |
| COc1cccc(-n2c(-c3cc(-c4ccccc4)c(N4CCOCC4)s3)nc3ccccc3c2=O)c1 | 269 to 272 °C |
| CN(C)CCOc1ccc2c(c1)OCC21C(=O)Nc2ccccc21 (centres undefined) | 95 to 97 °C |
| CC(C)n1c(C=O)c(-c2ccc(F)cc2)c(-c2ccc(F)cc2)c1C(=O)Nc1ccc(CC(=O)N(C)C)cc1 | 226 to 227 °C |
| Oc1ccc(C(=C2SCCCS2)c2ccccc2)cc1 | 135 to 137 °C |
| O=C(O)CN1C(=O)C(=Cc2ccccc2)SC1=S | 254 to 256 °C |
| COC(=O)c1ccc(OC(=O)CCC(=O)Oc2ccc(C(=O)OC)cc2)cc1 | 190 °C |

| Structure (SMILES) | melting point |
| --- | --- |
| O=C(O)c1cccc(CN2CCC(c3cn(Cc4cccs4)c4ccccc34)CC2)c1 | 228 to 229 °C |
| COc1cccc(NC(=O)Nc2ccc(N3CCN(C(=O)Nc4ccc(OCCO)cc4Cl)CC3)cc2)c1 | 198 to 201 °C |
| COc1ccccc1CC(=O)N1C[C@H]2C(c3ccccc3OC)=CCC(c3ccccc3)(c3ccccc3)[C@H]2C1 | 142 °C |
| COc1ccc2c(c1)c(CC(=O)OCC(=O)O)c(C)n2C(=O)c1ccc(F)c(F)c1 | 128 to 129 °C |
| Cc1cccc(C)c1N1CC(C)N(c2c(C)cccc2C)C1=NC(=O)C(F)(F)F (centres undefined) | 232 to 235 °C |
| N#Cc1c[nH]c(-c2ccccc2)c1C#N | 197 to 200 °C |
| NC(CCCCNC(=O)OCc1ccccc1)C(=O)Nc1cccc2ccccc12 (centres undefined) | 138 to 140 °C |
| CNC(c1ccc(O)cc1)c1csc(S(N)(=O)=O)c1 (centres undefined) | 127 to 129 °C |
| Cc1cccc(-c2cc(Cl)c3ccccc3n2)c1 | 75 to 77 °C |
| COc1ccc(C2CNC(=O)C2)cc1I (centres undefined) | 158 °C |
| O=C(Cn1c(-c2ccc(F)cc2)ncc(NC(=O)OCc2ccccc2)c1=O)NC(Cc1ccccc1)C(=O)C(F)(F)F (centres undefined) | 103 to 107 °C |
| CN(Cc1cccc2ccccc12)c1nc(N2CCC(N(C)C)CC2)nc2c(N3CCOCC3)ncnc12 | 124 to 126 °C |
| Oc1c(Cl)nc(-c2ccccc2)nc1Cl | 138 to 140 °C |
| NCc1sc(C(c2ccc(Cl)cc2)c2c(Cl)cc(-n3ncc(=O)[nH]c3=O)cc2Cl)nc1-c1ccccc1 (centres undefined) | 170 °C |
| CCOC(=O)c1sc(SC)c2c1CCc1cn(C)nc1-2 | 193 to 194 °C |
| CNCc1cc2c(=O)c(C(=O)NCc3ccc(Cl)cc3)cn(C)c2s1 | 196 to 199 °C |
| COc1ccc(N2CCN(c3ccc([N+](=O)[O-])cc3)CC2)nc1 | 160 °C |
| CN1CNS(=O)(=O)c2cc(O)ccc21 | 168 to 172 °C |
| COc1cn(-c2ccc(-n3cc(F)c(F)c3)cc2OC(F)F)nc(-c2ccnn2-c2ccccc2)c1=O | 168 to 170 °C |
| COc1ccc(CS(=O)(=O)Cc2ccc(OC)cc2)cc1 | 108 to 123 °C |

Further lines, results first:

| melting point | Structure (SMILES) |
| --- | --- |
| 152 to 154 °C | CCC(=O)Nc1ccc(C2=NN(C(=O)CC)C(C)Cc3cc4c(cc32)OCO4)cc1 (centres undefined) |
| 219 to 221 °C | COc1ccc(-c2ccc(Cl)c(C(=O)NCC34CC5CC(CC(C5)C3)C4)c2)c(C(=O)O)c1 |
| 173 to 175 °C | N#Cc1cc2c(c(-c3ccccc3Cl)c1)OC(CN)C2 (centres undefined) |
| 209 to 211 °C | N#Cc1c(C(=O)O)cnn1-c1ccc(Br)cc1 |
| 172 to 174 °C | CC(C)(C)c1cc(C=C(C#N)C(N)=S)cc(C(C)(C)C)c1 |
| 276 to 278 °C | O=C(NCc1ncc[nH]1)c1[nH]c2ccc(Cl)cc2c1S(=O)(=O)c1ccccc1 |
| 193 to 196 °C | CNS(=O)(=O)N1CCn2c(c(C(N)=O)c(Cl)c2-c2ccccc2)C1 |
| 141 to 142 °C | CCC(=O)NCc1ccc2ccn(C3CCN(CCc4ccc(F)cc4)CC3)c2c1 |
| 102 to 106 °C | CCOC(=O)C1=Cc2cc(C#N)ccc2OC1C(F)(F)F (centres undefined) |
| 213 °C | Cc1ccn2c(-c3ccnc(-c4ccc(OCC(N)=O)cc4)c3)c(-c3cccc(C)n3)nc2c1 |
| 223 to 224 °C | C=C(C)C(=O)Nc1cccc2c(O)cccc12 |
| 168 °C | CCC1(CC)OC(=O)N(CCC(C)(C)NC[C@H](O)c2ccc(O)c(NS(C)(=O)=O)c2)c2ccccc21 |
| 179 to 182 °C | O=[N+]([O-])c1cnn2ccccc12 |
| 200 to 204 °C | CCOc1cc2ncc(C#N)c(NCc3ccc(OC)c(OC)c3)c2cc1OCC |
| 208 to 209 °C | CCc1c[nH]c(=O)c(N)c1Sc1cc(C)cc(C)c1 |
| 85 to 86 °C | Cc1c(C)c2c(c(C)c1NC(=O)CCCOCc1ccccc1)C(c1ccc(C(C)C)cc1)CO2 (centres undefined) |
| 171 to 174 °C | Cc1cc(C(=O)O)ccc1-c1ccccc1C(F)(F)F |
| 170 to 172 °C | CCOc1ccc(-c2noc3c(Cl)c(O)ccc23)c(F)c1 |
| 166 to 168 °C | COc1ccc(CN2CCC(c3cc(-c4ccc(Cl)cc4)[nH]n3)CC2)cc1 |
| 201 to 205 °C | Nc1ncc2c(n1)-c1ccccc1C(c1ccccc1)=NC2 |

| melting point | Structure (SMILES) |
| --- | --- |
| 140 °C | Cc1cc(C)n2nc(SCc3ccccc3)c(C#N)c2n1 |
| 236 to 238 °C | COc1ccccc1C(=O)NCc1cccc2c1CN(C1CCC(=O)NC1=O)C2=O (centres undefined) |
| 97 to 98 °C | COC(=O)c1ccc2cc(Cl)ccc2c1 |
| 142 to 143 °C | c1ccc(-c2nc3n(c2-c2ccccn2)CCS3)nc1 |
| 259 to 263 °C | CCC(=O)c1cc(C#N)c(=O)[nH]c1C |
| 125 °C | CCCCc1nnc(-c2ccc(N)cc2)o1 |
| 197 to 200 °C | O=C(c1ccc(NC(=O)C(O)(C(F)(F)F)C(F)(F)F)cc1)c1ccccn1 |
| 112 °C | Cc1ccc(S(=O)c2nc(Cl)c([N+](=O)[O-])s2)cc1 (centres undefined) |
| 147 to 165 °C | CC(COc1ccc(O)c(C(N)=O)c1)NCC(O)c1ccccn1 (centres undefined) |
| 238 to 239 °C | CC(C)(C)CC(NC(=O)c1cccc(Cl)c1)Nc1c(Nc2cccnc2)c(=O)c1=O (centres undefined) |
| 193 to 194 °C | Cc1ccc(C(=O)Nc2c(NC(=O)CN3CCCC3)ccc3c2C(=O)c2ccccc2C3=O)cc1 |
| 172 to 173 °C | Cc1ccc(C2CC(=O)C=C(N)C2)s1 (centres undefined) |
| 167 to 168 °C | Cc1oc(-c2ccccc2)nc1CCC(N)=S |
| 165 to 170 °C | COc1ccccc1-c1nc2cc(C)ccc2c(=O)[nH]1 |
| 184 to 185 °C | O=C(Nc1ccccc1-c1nnc(CSCCOc2ccccc2)o1)N1CCCC1 |
| 180 to 181 °C | O=C(Cc1ccc(-c2cccc(F)c2)cc1)Nc1n[nH]c2c1CCC2 |
| 148 to 149 °C | CC(=O)OCCc1ccc(NC(=O)OCc2ccccc2)cc1 |
| 261 to 262 °C | CS(=O)c1ccc(-c2nc(-c3nc4ccccc4c(=O)[nH]3)ccc2OCCO)cc1 (centres undefined) |
| 100 °C | O=C(O)CCCCCn1nnnc1S |
| 191 to 193 °C | Cc1c(C(=O)Nc2ccc(OCCN3CCOCC3)c(C#N)c2)cnn1-c1ccc(C(F)(F)F)cc1 |

| melting point | Structure (SMILES) |
| --- | --- |
| 92 to 94 °C | CC(CC(=O)O)c1ccc(O)cc1O (centres undefined) |
| 263 to 265 °C | Cc1ccc(N2C(=O)C(O)=C(C(=O)c3ccc(C(C)C)cc3)C2c2ccc(OC(F)F)cc2)nn1 (centres undefined) |
| 169 to 170 °C | CN1CCN(C(=NS(=O)(=O)c2ccc(F)cc2)N2CC(c3ccccc3)C(c3cccnc3)=N2)CC1 (centres undefined) |
| 101 to 103 °C | CC1C(=CO)C(=O)c2c(O)cc(OCCCCc3ccccc3)cc2N1C=O (centres undefined) |
| 106 to 107 °C | N#CCCN1CCOC(c2ccccc2)(c2ccccc2)CC1 |
| > 240 °C | O=C(Nc1cccc(-c2ccnc3c(C(=O)c4cccs4)cnn23)c1)c1ccco1 |
| 92 to 93 °C | CCOC(=O)N(CCCOCCOCCCN(C(=O)OCC)C1CC(C)(C)NC(C)(C)C1)C1CC(C)(C)NC(C)(C)C1 |
| 124 to 126 °C | Clc1cccc(OC2CCNc3ncc(-c4ccc(N5CCOCC5)cc4)cc32)c1 (centres undefined) |
| > 250 °C | Cc1csc(C(=O)C2C(=O)N(C(N)=O)c3cc(F)cnc32)c1 (centres undefined) |
| 61 to 65 °C | CC(C)CC1OC[C@@H]2CCCN2C1=O (some centres undefined) |
| 228 to 230 °C | N#CC(C(=O)Nc1ccon1)C(=O)c1nn(-c2ccccc2)c2c1CSc1ccccc1-2 (centres undefined) |
| 180 to 181 °C | COc1cc(CC(=O)NCCOc2ccc(C(=O)O)cc2OC)ccc1NC(=O)Nc1ccccc1C |
| 198 to 200 °C | O=CC=CC(=C(c1ccc(F)cc1)c1ccc(F)cc1)n1nnnc1-c1ccccc1 |
| 200 to 201 °C | Oc1ccc2c(c1)C(Cc1ccnc(F)c1)(Cc1ccnc(F)c1)c1ccccc1-2 |
| 73 to 74 °C | O=Cc1ccc(OCc2ccccc2)c(OCc2ccccc2)c1OCc1ccccc1 |
| 122 to 127 °C | CC=CCn1c(C)c(C)c2cnnc(SCc3ccc(F)cc3F)c21 |
| 63 to 64 °C | O=C1c2ccccc2C(=O)N1CCCCCCCCOc1cccc2ccccc12 |
| 131 °C | COc1cc(OC)c2c(c1)C(C)(C)C1(C=Cc3cc([N+](=O)[O-])cc(OC)c3S1)N2C (centres undefined) |
